Data taken from US20200222347A1, “ANTIMICROBIALS AND METHODS OF USE THEREOF” (priority 2013, published 2020).
Where “and” joins values, the source holds several entries; their conditions need not be identical. Equal values may be shown once.

Experiments:
all bacteria tested = assay: In vitro antimicrobial susceptibility, whole panel; assay type: cell-based
S. aureus 33591 (MRSA) = assay: Kirby-Bauer disc diffusion antimicrobial susceptibility; assay type: cell-based, Staphylococcus aureus; details: 100 mM, carrier water; 18-24 hours for aerobes
P. aeruginosa = assay: as above; assay type: cell-based, Pseudomonas aeruginosa; details: 100 mM, carrier water; 18-24 hours for aerobes
Legionella 43662 = assay type: cell-based
[1] = tested on: Pseudomonas aeruginosa ATCC9027; assay: Paper disc test with water or propylene glycol, Example 10
S. aureus 6538 = assay: Kirby-Bauer disc diffusion antimicrobial susceptibility; assay type: cell-based; details: 100 mM, carrier water; 18-24 hours for aerobes
K. pneumoniae = assay: as above; assay type: cell-based; details: 100 mM, carrier water; 18-24 hours for aerobes
[2] = tested on: E. coli, ATTC 8739 and ATCC 43895; assay: as above; assay type: cell-based; details: 100 mM, carrier water; 18-24 hours for aerobes
[3] = tested on: Aureobasidium pullulans, ATCC 15233; assay: In vitro test of 2, 4, 6 Trihydroxybenzaldehyde against a fungi; assay type: cell-based; details: 100 mM
[4] = tested on: Staphylococcus epidermidis ATCC 51625 (MRSE); assay: In vitro antimicrobial test (FIG. 32); assay type: cell-based
[5] = tested on: Staphylococcus aureus ATCC33591 (MRSA); assay: Paper disc test with water or propylene glycol, Example 10
S. pyogenes = assay: Kirby-Bauer disc diffusion antimicrobial susceptibility; assay type: cell-based; details: 100 mM, carrier water
S. mutans = assay: as above; assay type: cell-based; details: 100 mM, carrier water
C. perfringens = assay type: cell-based; details: 100 mM, carrier water
C difficile = assay: Kirby-Bauer disc diffusion antimicrobial susceptibility; assay type: cell-based; details: 100 mM, carrier water; 48 hours for anaerobes

Compound: O=Cc1c(O)cc(O)cc1O [2, 4, 6 Trihydroxybenzaldehyde, 2, 4, 6 trihydroxybenzaldehyde]
- antibiotic properties (summary) (all bacteria tested): broad spectrum antibiotic
- effectiveness against S. aureus 33591 (MRSA) (S. aureus 33591 (MRSA)): effective
- effectiveness against P. aeruginosa (P. aeruginosa): effective
- effectiveness against Legionella 43662 (Legionella 43662): effective
- inhibition of growth under the sample ([1]; PPG): I
- zone of inhibition ([1]; PPG): 3 mm
- inhibition of growth under the sample ([1]; Water): I
- zone of inhibition ([1]; Water, listed as 246 THBA): 2 mm and 3 mm
- effectiveness against S. aureus 6538 (S. aureus 6538): effective
- effectiveness against K. pneumoniae (K. pneumoniae): effective
- effectiveness against E. coli [2]: effective
- effectiveness against A. pullulans, a fungi [3]: effective
- effectiveness against MRSE ATCC 51625 [4]: effective
- inhibition of growth under the sample ([5]; PPG): I
- zone of inhibition ([5]; PPG): 12 mm
- inhibition of growth under the sample ([5]; Water): I
- zone of inhibition ([5]; Water, listed as 246 THBA): 14 mm and 15 mm

Compound: CC1(C)S[C@@H]2[C@H](NC(=O)[C@H](N)c3ccc(O)cc3)C(=O)N2[C@H]1C(=O)O [Amoxicillin, amoxicillin, reference compound]
- effectiveness against P. aeruginosa (P. aeruginosa): no effect

Compound: Oc1cc(O)c2cc(O)c(-c3ccc(O)c(O)c3)[o+]c2c1.[Cl-] [Cyanidin CI, cyanidin chloride]
- antibiotic properties (summary) (all bacteria tested): limited antibiotic properties
- effectiveness against S. aureus 33591 (MRSA) (S. aureus 33591 (MRSA)): effective
- effectiveness against S. pyogenes (S. pyogenes): effective
- effectiveness against S. mutans (S. mutans): effective
- effectiveness against S. aureus 6538 (S. aureus 6538): effective
- effectiveness against C. perfringens (growth inhibition) (C. perfringens): effective
- effectiveness against C. difficile (growth inhibition) (C difficile): effective

Compound: O=C(O)CNC(=O)c1ccccc1 [hippuric acid]
- antibiotic properties (summary) (all bacteria tested): little activity

Compound: COc1cc(C(=O)O)ccc1O [vanillic acid]
- antibiotic properties (summary) (all bacteria tested): little activity
